{
  "source": "patent US20240358782A1",
  "about": "“Regulatory Composition of the Neuro-Immune-Endocrine and Cortisol Reducing System of the Human Being” (priority 2020, published 2024)",
  "key": {"[1]": {"tested_on": "chorio-allantoic membrane of hen embryonated egg", "description": "The first step was to evaluate the cytotoxicity of the composition in a chicken embryonated egg chorio-allantoic membrane (HET-CAM) assay (FIG. 1)."}, "monoamine oxidase (MAO)": {"tested_on": "monoamine oxidase (MAO)", "details": "in vitro; cited from earlier work"}, "[2]": {"tested_on": "Salmonella enterica serovar Enteritidis (phagetype PT4)", "test": "Salmonella challenge: deaths and serum cytokines (Example 1, phase 2)", "assay_type": "in vivo, rat", "details": "oral treatment 20 days, dose 257 mg/kgPV (Enramicine 96 mg/kgPV)", "description": "In phase 2, the experiment consisted of repeating the treatments of Phase 1, for 10 days, and inoculating the groups, except the so-called naive (negative control), with a high dose of Salmonella enteritidis. After 20 days, the mortality and the behavior of the immune system of the rats of each group were observed.\nIn this way, different groups of male rats were randomly marked on the tails for identification. The animals were adapted to the laboratory environment for one week before the beginning of the experiments. After a 6 h fasting period, the animals' body weight was determined and the dose of the prebiotics, the composition of this invention and Enramycin were calculated. The animals were divided into 11 (eleven) groups of 10 (ten) individuals. The animals were treated daily, by the oral route (used in the animals used as reference), with placebo (vehicle; filtered water 1 mL/kg BW) or with FOS ingredion (257 mg/kg BW), FOS Yes (257 mg/kg BW). kgPV), GOS Yes (257 mg/kgPV), Yes MOS (257 mg/kgPV), GlucanMOS (257 mg/kgPV), Glucangold Yes (77 mg/kgPV), Mixture 1 (FOS Yes+GOS Yes) (257 mg/kgPV), Composition of this invention (GlucanGold Yes+GOS Yes+FOS Yes, containing 20% of 1,3 and 1,6 beta-glucans, 31% of GOS and 29% of FOS by mass on mass %) ([…]). All treatments were performed for 20 days. After 10 days from the beginning of treatments, the aforementioned groups received a challenge with 1 mL (10^8 colony forming units [cfu]/mL) of a strain of Salmonella enterica serovar Enteritidis (phagetype PT4), orally (gavage).\nAn experimental group called naive underwent sham gavage (no treatment) and was not infected with any bacterial strain. At the end of the experiments, and before euthanasia, the surviving animals were fasted for 6 hours with free access to water. Then, under anesthesia with isoflurane (2-3%), 5 mL of blood was obtained from the left jugular vein for the evaluation of biochemical parameters. After this procedure, the animals were euthanized with a supra-pharmacological dose of isoflurane (10-15%) in a saturation chamber. Immediately after euthanasia, target organs were removed for analysis.\nTable 8, below, indicates the effects of treatments with different isolated components, with the Composition according to the invention, or with Enramincin, on the serum levels of interleukin 10 (IL-10), IL-6 and tumor necrosis factor alpha (TNF-alpha) from male Wistar rats infected with Salmonella enterica."}, "male Wistar rats [3]": {"tested_on": "male Wistar rats", "test": "Serum redox state markers after 10 days of oral treatment (Example 1, Phase 1)", "assay_type": "in vivo, rat", "details": "oral daily 10 days, dose 257 ml/kgPV, mean ± standard error", "experimental": "(§1) In Phase 1, the experiment consisted of providing the same amount (in mg), per kg of live weight (mg/kg BW), of each of the components of the composition of this invention, as well as the same amount of the composition, and comparing the effects with that of control animals, which received placebo or the antibiotic Enramycin. After 10 days, an evaluation of the immune system of the […] of each of the groups was carried out.\n(§2) In this way, different groups of male Wistar rats were randomly marked on the tails for identification. The animals were adapted to the laboratory environment for one week before the treatments. Initially, after a 6 h fasting period, the body weight of the animals was determined and the dose of the Composition and Enramycin […] were calculated. The animals were divided into 11 (eleven) groups of 10 (ten) individuals. The animals were treated daily, orally (used in the animals used as reference), with placebo (vehicle; filtered water 1 mL/kg BW) or with FOS Ingredion (257 mg/kg BW), FOS Yes (257 mg/kg BW) kgPV), GOS Yes (257 mg/kgPV), Yes MOS (257 mg/kgPV), Yes GlucanMOS (257 mg/kgPV), Glucangold Yes (77 mg/kgPV), Mixture 1 (FOS Yes+GOS Yes) (257 mg/kgPV), Composition of this invention (GlucanGold Yes+GOS Yes+FOS Yes, containing 20% of 1,3 and 1,6 beta-glucans, 29% of GOS and 31% of FOS by mass on total mass %) ([…]). An experimental group called naive underwent simulated gavage (without any treatment). All the animals that composed the different experimental groups received the treatment for 10 days. At the end of the experiments, and before euthanasia, the animals were fasted for 6 hours with free access to water. Final body weight was recorded to calculate relative organ weight. Then, under anesthesia with isoflurane (2-3%), 5 mL of blood was obtained from the left jugular vein for the evaluation of biochemical parameters. After this procedure, the animals were euthanized with a supra-pharmacological dose of isoflurane (10-15%) in a saturation chamber. […]"}, "male Wistar rats [4]": {"tested_on": "male Wistar rats", "test": "Tissue levels of lipoperoxides (LPO) after 10 days of oral treatment (Example 1, Phase 1)", "assay_type": "in vivo, rat", "details": "oral daily 10 days, mean ± standard error"}, "male Wistar rats [5]": {"tested_on": "male Wistar rats", "test": "Serum IL-10, IL-6 and TNF-alpha after 10 days of oral treatment (Example 1, Phase 1)", "assay_type": "in vivo, rat", "details": "oral daily 10 days, dose 257 mg/kgPV (Enramicine 96 mg/kgPV), mean ± standard error", "experimental": "as §1, §2"}, "[6]": {"details": "serum, Salmonella-infected male Wistar rats, mean ± standard error"}, "[7]": {"details": "dose 257 mg/kgPV (Enramicine 96 mg/kgPV)"}, "[8]": {"details": "dose 257 ml/kgPV (Enramicine 96 ml/kgPV)"}},
  "note": "Marks after values point to notes of the source that are not given here.",
  "data": [
    {"molecule": "[Na+].[OH-]", "note": "[NAOH, Sodium Hydroxide]", "values": [
      {"measurement": "hemorrhagic (cytotoxic) effect / irritation on chorio-allantoic membrane", "setting": "[1]", "result": "lyse blood vessels, resulting in hemorrhage"}
    ]},
    {"molecule": "COc1cc(C2Oc3cc([C@H]4Oc5cc(O)cc(O)c5C(=O)[C@@H]4O)ccc3OC2CO)ccc1O", "note": "(stereo partly drawn) [siliinin]", "values": [
      {"measurement": "inhibition of monoamine oxidase (MAO) activity", "setting": "monoamine oxidase (MAO)", "result": "inhibits the activity of monoamine oxidase (MAO)"}
    ]},
    {"molecule": "Enramycin [Enramicine]", "values": [
      {"measurement": "Deaths", "setting": "[2]; male Wistar rats, Salmonella enterica challenge (1 mL, 10^8 cfu/mL) after 10 days", "result": 0, "unit": "%"},
      {"measurement": "IL-6", "setting": "[2]; [6]", "result": "249.7 ± 37.7", "unit": "pg/mL"},
      {"measurement": "IL-10", "setting": "[2]; [6]", "result": "16.6 ± 0.9^b pg/ml"},
      {"measurement": "TFN-alfa", "setting": "[2]; [6]", "result": "10.7 ± 1.1^b pg/ml"},
      {"measurement": "Malondialdehyde", "setting": "male Wistar rats [3]", "result": "2.1 ± 0.15", "unit": "mmol/L"},
      {"measurement": "Nitrite", "setting": "male Wistar rats [3]", "result": "45.3 ± 5.51", "unit": "%"},
      {"measurement": "Nitrotirosine", "setting": "male Wistar rats [3]", "result": "0.007 ± 0.003", "unit": "µmol/L"},
      {"measurement": "LPO, Kidneys", "setting": "male Wistar rats [4]; [7]", "result": "119.4 ± 7.1 U/mg of protein"},
      {"measurement": "LPO, Liver", "setting": "male Wistar rats [4]; [7]", "result": "170.1 ± 14.1 U/mg of protein"},
      {"measurement": "LPO, Spleen", "setting": "male Wistar rats [4]; [7]", "result": "117.5 ± 10.1 U/mg of protein"},
      {"measurement": "tissue lipoperoxides (LPO), Cecum", "setting": "male Wistar rats [4]; [8]", "result": "170.2 ± 10.0"},
      {"measurement": "tissue lipoperoxides (LPO), Colon", "setting": "male Wistar rats [4]; [8]", "result": "230.2 ± 11.2"},
      {"measurement": "tissue lipoperoxides (LPO), Ileum", "setting": "male Wistar rats [4]; [8]", "result": "117.9 ± 14.2"},
      {"measurement": "IL-6", "setting": "male Wistar rats [5]", "result": "210.5 ± 25.5", "unit": "pg/mL"},
      {"measurement": "IL-10", "setting": "male Wistar rats [5]", "result": "15.3 ± 5.1", "unit": "pg/mL"},
      {"measurement": "TFN-alfa", "setting": "male Wistar rats [5]", "result": "8.0 ± 1.5", "unit": "pg/mL"}
    ]}
  ]
}
